From ChEMBL document CHEMBL1133531, “Carbonic anhydrase inhibitors: perfluoroalkyl/aryl-substituted derivatives of aromatic/heterocyclic sulfonamides as topical intraocular pressure-lowering agents with prolonged duration of action” (J Med Chem, 2000)

Columns and labels:
[1] = target: Carbonic anhydrase 1 (Homo sapiens, UniProt P00915)
Description: Inhibition of human recombinant carbonic anhydrase I (CA1)

[2] = target: T1, Carbonic anhydrase 4 (Bos taurus, UniProt Q95323)
T1 sequence (Q95323 whole entry): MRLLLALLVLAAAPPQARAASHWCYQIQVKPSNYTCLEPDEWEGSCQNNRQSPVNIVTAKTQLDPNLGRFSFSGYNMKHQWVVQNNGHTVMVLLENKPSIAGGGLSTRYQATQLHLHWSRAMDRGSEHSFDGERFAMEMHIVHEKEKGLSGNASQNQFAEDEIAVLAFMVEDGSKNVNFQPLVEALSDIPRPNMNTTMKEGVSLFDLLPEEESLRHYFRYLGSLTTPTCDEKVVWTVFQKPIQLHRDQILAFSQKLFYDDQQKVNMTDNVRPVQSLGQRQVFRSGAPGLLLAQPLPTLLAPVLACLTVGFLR
Description: Inhibition of bovine carbonic anhydrase IV (CA4) from bovine lung microsomes

Carbonic anhydrase 1, sequence (P00915 whole entry): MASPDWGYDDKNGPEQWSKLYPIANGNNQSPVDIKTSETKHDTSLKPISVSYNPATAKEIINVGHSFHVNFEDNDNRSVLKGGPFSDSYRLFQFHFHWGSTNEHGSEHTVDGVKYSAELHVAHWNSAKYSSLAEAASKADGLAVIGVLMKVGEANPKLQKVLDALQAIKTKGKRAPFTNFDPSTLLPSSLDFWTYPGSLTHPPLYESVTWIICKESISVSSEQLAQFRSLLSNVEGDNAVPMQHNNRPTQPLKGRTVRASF

Compound	Ki [1]	Ki [2]
NS(=O)(=O)c1ccc(CCOC(=O)C(F)(F)C(F)(F)C(F)(F)C(F)(F)C(F)(F)C(F)(F)C(F)(F)C(F)(F)F)cc1	20000 nM	12000 nM
NS(=O)(=O)c1cccc(NS(=O)(=O)C(F)(F)F)c1	188000 nM	95300 nM
NS(=O)(=O)c1cc(S(N)(=O)=O)c(NC(=O)C(F)(F)C(F)(F)C(F)(F)C(F)(F)C(F)(F)C(F)(F)C(F)(F)C(F)(F)F)c(Cl)c1Cl	7000 nM	830 nM
NS(=O)(=O)c1ccc(NC(=O)c2c(F)c(F)c(F)c(F)c2F)c(Br)c1	1870 nM	865 nM
NS(=O)(=O)c1ccc(COC(=O)c2c(F)c(F)c(F)c(F)c2F)cc1	1200 nM	410 nM
NS(=O)(=O)c1ccc(NNS(=O)(=O)c2c(F)c(F)c(F)c(F)c2F)cc1	1000 nM	500 nM
NS(=O)(=O)c1nnc(NC(=O)CCNS(=O)(=O)C(F)(F)C(F)(F)C(F)(F)C(F)(F)C(F)(F)C(F)(F)C(F)(F)C(F)(F)F)s1	300 nM	9 nM
NS(=O)(=O)c1cccc(NS(=O)(=O)c2ccc(NC(=O)C(F)(F)C(F)(F)C(F)(F)C(F)(F)C(F)(F)C(F)(F)C(F)(F)C(F)(F)F)cc2)c1	3000 nM	30 nM
NS(=O)(=O)c1ccc(NC(=O)C(F)(F)C(F)(F)C(F)(F)C(F)(F)C(F)(F)C(F)(F)C(F)(F)C(F)(F)F)c(Br)c1	2500 nM	620 nM
NS(=O)(=O)c1cccc(NS(=O)(=O)c2ccc(NS(=O)(=O)C(F)(F)C(F)(F)C(F)(F)C(F)(F)F)cc2)c1	4000 nM	36 nM
Cn1nc(S(N)(=O)=O)s/c1=N/S(=O)(=O)c1ccc(NS(=O)(=O)C(F)(F)C(F)(F)C(F)(F)C(F)(F)C(F)(F)C(F)(F)C(F)(F)C(F)(F)F)cc1	1100 nM	25 nM
Cn1nc(S(N)(=O)=O)sc1=NS(=O)(=O)C(F)(F)C(F)(F)C(F)(F)C(F)(F)F	350 nM	10 nM
NS(=O)(=O)c1ccc(Nc2ccnc(NC(=O)c3c(F)c(F)c(F)c(F)c3F)n2)cc1	7700 nM	62 nM
NS(=O)(=O)c1ccc(CCNS(=O)(=O)c2c(F)c(F)c(F)c(F)c2F)cc1	760 nM	230 nM
NS(=O)(=O)c1ccc(CCOS(=O)(=O)c2c(F)c(F)c(F)c(F)c2F)cc1	300 nM	103 nM
NS(=O)(=O)c1nnc(NC(=O)CCNS(=O)(=O)C(F)(F)F)s1	3000 nM	40 nM
NS(=O)(=O)c1ccc(CNS(=O)(=O)C(F)(F)C(F)(F)C(F)(F)C(F)(F)C(F)(F)C(F)(F)C(F)(F)C(F)(F)F)cc1	1000 nM	705 nM
NS(=O)(=O)c1ccc(CCNC(=O)c2c(F)c(F)c(F)c(F)c2F)cc1	900 nM	310 nM

Compound	Ki [1]	Ki [2]
NS(=O)(=O)c1nnc(NC(=O)CCNC(=O)c2c(F)c(F)c(F)c(F)c2F)s1	300 nM	10 nM
NS(=O)(=O)c1ccc(COS(=O)(=O)c2c(F)c(F)c(F)c(F)c2F)cc1	290 nM	100 nM
NS(=O)(=O)c1cccc(NS(=O)(=O)c2c(F)c(F)c(F)c(F)c2F)c1	1100 nM	500 nM
NS(=O)(=O)c1nc2ccc(NS(=O)(=O)C(F)(F)C(F)(F)C(F)(F)C(F)(F)F)cc2s1	54 nM	6 nM
NS(=O)(=O)c1ccc(Nc2ccnc(NC(=O)C(F)(F)C(F)(F)C(F)(F)C(F)(F)C(F)(F)C(F)(F)C(F)(F)C(F)(F)F)n2)cc1	4400 nM	36 nM
NS(=O)(=O)c1ccc(NC(=O)c2c(F)c(F)c(F)c(F)c2F)c(F)c1	760 nM	185 nM
NS(=O)(=O)c1ccc(NS(=O)(=O)C(F)(F)C(F)(F)C(F)(F)C(F)(F)F)c(Cl)c1	10200 nM	880 nM
NS(=O)(=O)c1nc2ccc(OCCOS(=O)(=O)C(F)(F)F)cc2s1	50 nM	7 nM
NS(=O)(=O)c1ccc(NC(=O)C(F)(F)C(F)(F)C(F)(F)C(F)(F)C(F)(F)C(F)(F)C(F)(F)C(F)(F)F)cc1	1400 nM	850 nM
NS(=O)(=O)c1ccc(NC(=O)C(F)(F)C(F)(F)C(F)(F)C(F)(F)C(F)(F)C(F)(F)C(F)(F)C(F)(F)F)c(Cl)c1	2300 nM	600 nM
NS(=O)(=O)c1cc(S(N)(=O)=O)c(NS(=O)(=O)c2c(F)c(F)c(F)c(F)c2F)c(Cl)c1Cl	1500 nM	142 nM
NS(=O)(=O)c1ccc(NS(=O)(=O)c2c(F)c(F)c(F)c(F)c2F)c(Cl)c1	1450 nM	540 nM
NS(=O)(=O)c1ccc(NS(=O)(=O)c2ccc(NC(=O)c3c(F)c(F)c(F)c(F)c3F)cc2)cc1	6600 nM	39 nM
NS(=O)(=O)c1ccc(NC(=O)c2c(F)c(F)c(F)c(F)c2F)c(I)c1	2560 nM	1040 nM
NS(=O)(=O)c1cc(S(N)(=O)=O)c(NS(=O)(=O)C(F)(F)C(F)(F)C(F)(F)C(F)(F)C(F)(F)C(F)(F)C(F)(F)C(F)(F)F)c(Cl)c1Cl	8000 nM	765 nM
NS(=O)(=O)c1ccc(NNC(=O)C(F)(F)C(F)(F)C(F)(F)C(F)(F)C(F)(F)C(F)(F)C(F)(F)C(F)(F)F)cc1	1850 nM	840 nM
NS(=O)(=O)c1nc2ccc(NS(=O)(=O)C(F)(F)F)cc2s1	70 nM	8 nM
NS(=O)(=O)c1ccc(NC(=O)C(F)(F)C(F)(F)C(F)(F)C(F)(F)C(F)(F)C(F)(F)C(F)(F)C(F)(F)F)c(I)c1	3000 nM	680 nM

Continued by falling Ki [1], values first:

Ki [1]	Ki [2]	Compound
210000 nM	49000 nM	NS(=O)(=O)c1ccc(NS(=O)(=O)C(F)(F)F)c(I)c1
200000 nM	47000 nM	NS(=O)(=O)c1ccc(NS(=O)(=O)C(F)(F)F)c(Br)c1
166000 nM	64600 nM	NS(=O)(=O)c1ccc(NS(=O)(=O)C(F)(F)F)cc1
138000 nM	24500 nM	NS(=O)(=O)c1ccc(CNS(=O)(=O)C(F)(F)F)cc1
135000 nM	24100 nM	NS(=O)(=O)c1ccc(COS(=O)(=O)C(F)(F)F)cc1
80000 nM	45000 nM	NS(=O)(=O)c1ccc(CCOS(=O)(=O)C(F)(F)F)cc1
22000 nM	900 nM	NS(=O)(=O)c1ccccc1NS(=O)(=O)C(F)(F)C(F)(F)C(F)(F)C(F)(F)F
20300 nM	900 nM	NS(=O)(=O)c1ccc(NS(=O)(=O)C(F)(F)C(F)(F)C(F)(F)C(F)(F)F)c(Br)c1
15000 nM	11000 nM	NS(=O)(=O)c1ccc(COC(=O)C(F)(F)C(F)(F)C(F)(F)C(F)(F)C(F)(F)C(F)(F)C(F)(F)C(F)(F)F)cc1
8000 nM	55 nM	NS(=O)(=O)c1cccc(NS(=O)(=O)c2ccc(NC(=O)c3c(F)c(F)c(F)c(F)c3F)cc2)c1
5500 nM	725 nM	NS(=O)(=O)c1cc(S(N)(=O)=O)c(NS(=O)(=O)C(F)(F)F)c(Cl)c1Cl
1900 nM	420 nM	NS(=O)(=O)c1cc(S(N)(=O)=O)c(NC(=O)c2c(F)c(F)c(F)c(F)c2F)c(Cl)c1Cl
1600 nM	–	Cn1nc(S(N)(=O)=O)s/c1=N/S(=O)(=O)c1ccc(NC(=O)c2c(F)c(F)c(F)c(F)c2F)cc1
1500 nM	32 nM	NS(=O)(=O)c1nnc(NS(=O)(=O)c2ccc(NC(=O)c3c(F)c(F)c(F)c(F)c3F)cc2)s1
1500 nM	980 nM	NS(=O)(=O)c1ccc(NNC(=O)c2c(F)c(F)c(F)c(F)c2F)cc1
1500 nM	550 nM	NS(=O)(=O)c1ccc(NS(=O)(=O)c2c(F)c(F)c(F)c(F)c2F)c(Br)c1
1450 nM	500 nM	NS(=O)(=O)c1ccc(NS(=O)(=O)C(F)(F)C(F)(F)C(F)(F)C(F)(F)C(F)(F)C(F)(F)C(F)(F)C(F)(F)F)c(F)c1
1400 nM	870 nM	NS(=O)(=O)c1cccc(NS(=O)(=O)C(F)(F)C(F)(F)C(F)(F)C(F)(F)C(F)(F)C(F)(F)C(F)(F)C(F)(F)F)c1
1390 nM	680 nM	NS(=O)(=O)c1ccccc1NS(=O)(=O)c1c(F)c(F)c(F)c(F)c1F
1000 nM	24 nM	Cn1nc(S(N)(=O)=O)s/c1=N/S(=O)(=O)c1ccc(NS(=O)(=O)C(F)(F)C(F)(F)C(F)(F)C(F)(F)F)cc1
965 nM	470 nM	NS(=O)(=O)c1ccc(CCNS(=O)(=O)C(F)(F)C(F)(F)C(F)(F)C(F)(F)C(F)(F)C(F)(F)C(F)(F)C(F)(F)F)cc1
810 nM	130 nM	NS(=O)(=O)c1cc(S(N)(=O)=O)c(NC(=O)C(F)(F)C(F)(F)C(F)(F)C(F)(F)C(F)(F)C(F)(F)C(F)(F)C(F)(F)F)cc1Cl
750 nM	54 nM	NS(=O)(=O)c1cc(S(N)(=O)=O)c(NC(=O)c2c(F)c(F)c(F)c(F)c2F)cc1Cl
710 nM	140 nM	NS(=O)(=O)c1ccc(NS(=O)(=O)c2c(F)c(F)c(F)c(F)c2F)c(F)c1
380 nM	14 nM	Cn1nc(S(N)(=O)=O)sc1=NS(=O)(=O)C(F)(F)C(F)(F)C(F)(F)C(F)(F)C(F)(F)C(F)(F)C(F)(F)C(F)(F)F
325 nM	24 nM	NS(=O)(=O)c1ccc(Nc2ccnc(NS(=O)(=O)c3c(F)c(F)c(F)c(F)c3F)n2)cc1
125 nM	15 nM	NS(=O)(=O)c1ccc(NS(=O)(=O)c2ccc(NS(=O)(=O)c3c(F)c(F)c(F)c(F)c3F)cc2)cc1
120 nM	8 nM	NS(=O)(=O)c1nc2ccc(NC(=O)c3c(F)c(F)c(F)c(F)c3F)cc2s1
37 nM	14 nM	NS(=O)(=O)c1nc2ccc(OC(=O)C(F)(F)C(F)(F)C(F)(F)C(F)(F)C(F)(F)C(F)(F)C(F)(F)C(F)(F)F)cc2s1
24 nM	7 nM	NS(=O)(=O)c1nc2ccc(OCCOC(=O)C(F)(F)C(F)(F)C(F)(F)C(F)(F)C(F)(F)C(F)(F)C(F)(F)C(F)(F)F)cc2s1
